Assay results published in patent US20060009426A1, “Pharmaceutical compositions comprising calcitriol and a clobetasol propionate” (GALDERMA RESEARCH & DEVELOPMENT, S.N.C., priority 2002, published 2006).

Tests used:
[1] = test system: auricular ganglionic cells; assay: Count of the auricular ganglionic cells in oxazolone-sensitized mice; assay type: in vivo, Balb/c mice; settings: dose series, day 12, cells per animal
Procedure: (§1) 8-week-old Balb/c mice are pretreated on the abdominal skin from day 1 to day 6 using product A or B, or A and B diluted in ethanol. On day 6, the mice are actively sensitized by the topical application of 50 mg of oxazolone (oxa) in ethanol onto the abdominal skin. On day 11, an application of 20 mg of oxa in ethanol is performed on the right ear.
On day 12, one day after the repeated application of the oxa, the animals were sacrificed by cervical dislocation. The ganglionic cells are collected and combined by experimental group. A cell suspension is prepared and the cells are then counted. The number of cells is expressed per animal.

mouse ear oedema = assay: Ear oedema in the delayed hypersensitivity model of mice sensitized with a hapten (oxazolone); assay type: in vivo, Balb/c mice
Procedure: This test represents a reliable model for predicting the immunomodulatory properties of a product in a pathology of Th1 type such as psoriasis.
as §1
Student's t test was used for the statistical analysis of the results.
The thickness of the ear is measured, using a micrometer, on day 11 (just before the application of oxazolone to the presensitized mice) and after 24 hours, on day 12. The ear oedema is expressed as the difference between the measurement of the thickness of the ear between day 12 and day 11. The values of the thickness of the ear are analyzed statistically using Student's t test.

CCC(=O)O[C@]1(C(=O)CCl)[C@@H](C)C[C@H]2[C@@H]3CCC4=CC(=O)C=C[C@]4(C)[C@@]3(F)[C@@H](O)C[C@@]21C [product B, clobetasol propionate]
effect on the count of auricular ganglionic cells (FIG. 3) [1]: dose-response effect | efficacy on inflammation (ear oedema, FIGS. 1 and 2) (mouse ear oedema; clobetasol propionate alone at 0.01%, topical): moderate efficacy | effect of topical application on the intensity of mouse ear oedema (FIG. 1) (mouse ear oedema; dose series, topical pretreatment day 1 to day 6, oedema = ear thickness day 12 minus day 11): dose-response effect
